Drawing on ChEMBL document CHEMBL1149078, “1,3,4-Oxadiazoline derivatives as novel potential inhibitors targeting chitin biosynthesis: design, synthesis and biological evaluation” (Bioorg Med Chem Lett, 2009), this text covers inhibition and IC50 for four molecules.

For experiment [1], the system named is Saccharomyces cerevisiae. Kind of experiment: Inhibition of yeast chitin synthase at 250 uM.
A short description of experiment [2]: Inhibition of yeast chitin synthase. On the set-up: species or system Saccharomyces cerevisiae.

For orientation: inhibition means how much of the control response was suppressed. The low end stands for a weak effect, the high end for a strong effect. With `CCCCC1(CCCC)OC(c2cc(C)cc(C)c2)=NN1C(C)=O`, the inhibition in experiment [1] stood at 68%.
In general, IC50 refers to the concentration that inhibits the measured activity by half. On to `CCCCC1(CCCC)OC(c2ccc(Cl)cc2Cl)=NN1C(=O)NC(=O)c1ccccc1Cl`, for which the IC50 in experiment [2] worked out at 5.6 µM. Further, the inhibition in experiment [1] was 86%.
Regarding `CCCCC1(CCCC)OC(c2ccccc2Cl)=NN1C(C)=O`, in experiment [2], the IC50 was determined as 7.93 µM. In experiment [1], the inhibition came to 91%.
`CCCCC1(CCCC)OC(c2ccc(Cl)cc2)=NN1C(C)=O` came in with an inhibition in experiment [1] of 69%.
